In assay [1] the test system is genes related to muscle metabolism (MYF6, MyoD, and Desmin) and fat metabolism (PPARr, CEBPa, and FABP4) of the loin tissue. Kind of assay: Real-time PCR of gene expression related to loin tissue development under cold stress conditions. It counts as in vivo, Korean native cattle. The text has this:
After grouping the animals by statistical analysis of initial body weights, the animals were bred in 1.0×1.5 m^2 individual pens during the experiment period. The feed was offered based on an amount of dry matter of daily total mixed ration (TMR) per head. After 7 days of an adaptation period for N-acetyl-L-tryptophan (NALT), a mixture of 0.1% N-acetyl-L-tryptophan (NALT) and the total mixed ration was fed to individual animals every morning at 8 a.m. for 6 weeks, and water was available ad libitum. Total amounts of L-tryptophan ingested by the control and NALT-treated group by feeding NALT were 7.37 g/day/head and 16.26 g/day/head, respectively. The experiment was performed such that the NALT-treated group ingested 8.89 g/day/head more L-tryptophan than that of the control. Meanwhile, results of growth performance analysis (body weight and average feed intake) and genetic analysis of loin tissue were obtained by statistically comparing and analyzing significant differences between the control and the NALT-treated group, and results of hematological analysis were obtained via statistical comparison and analysis depending on NALT treatment, experiment period (days), and interaction (treatment×days). These numerical values were expressed as average values, and a significance test was performed at the 5% level using Student's t-test by using the JMP 5.0 software package (SAS Institute Inc., Cary, NC, USA). Samples of loin tissue of the sentinel animals were obtained at the final day of the experiment (day 48) using a biopsy gun for large animals (TNT Research Co., Ltd., Gyeonggi-do, Republic of Korea), added to a 2 mL tube, and incubated in liquid nitrogen gas. After extracting RNA from each tissue sample, real-time PCR was conducted to analyze expression levels of genes related to muscle metabolism (MYF6, MyoD, and Desmin) and fat metabolism (PPARr, CEBPa, and FABP4) of the loin tissue of each animal.
(In qPCR the cycle at which signal appears reflects the starting amount.)

Assay [2] deals with Korean native steers. Kind of assay: Feed intake and drinking water intake according to NALT feeding under heat stress conditions. To be noted: for Drinking water intake / Feed intake: 0.1% NALT. It counts as in vivo, Korean native cattle. The text has this: After grouping the animals by statistical analysis of initial body weights, the animals were bred in 1.0×1.5 m^2 individual pens during the experiment period. The feed was offered based on an amount of dry matter of daily total mixed ration (TMR) per head. After 7 days of an adaptation period for N-acetyl-L-tryptophan (NALT), a mixture of 0.1% N-acetyl-L-tryptophan (NALT) and the total mixed ration was fed to individual animals every morning at 8 a.m. for 6 weeks, and water was available ad libitum. Total amounts of L-tryptophan ingested by the control and the experimental group (NALT-treated group) by feeding NALT were 6.0 g/day/head and 18.2 g/day/head, respectively. The experiment was performed such that the NALT-treated group ingested 12.2 g/day/head more L-tryptophan than the control.
Meanwhile, results of growth performance analysis (body weight and average feed intake) and genetic analysis of loin tissue were obtained by statistically comparing and analyzing significant differences between the control and the NALT-treated group, and results of hematological analysis were obtained via statistical comparison and analysis depending on NALT treatment, experiment period (days), and interaction (treatment×days). These numerical values were expressed as average values, and a significance test was performed at the 5% level using Student's t-test by using a JMP 5.0 software package (SAS Institute Inc., Cary, NC, USA).
Temperature (° C.) and relative humidity (%) were recorded every day during a one-week adaptation period and a 6-week experiment period using a portable temperature and humidity meter. Average temperature and average relative humidity of each week were calculated using the temperature and relative humidity recorded during the total experiment period. In addition, a temperature-humidity index (THI) was calculated using temperature and humidity as shown in the following equation, and heat stress state may be diagnosed using the THI as an index feature of a heat load. THI=(1.8×T+32)−[0.55−0.0055×RH)×(1.8×T−26.8)
Feed intake of each sentinel animal was calculated by measuring a total amount of feed offered and an amount left over every day, and drinking water intake thereof was calculated every day by measuring a total amount of drinking water offered and an amount left over. Also, since the amount of feed left over was measured in pen units, DMI/BW % was calculated using the equation DMI/BW %=1.2425+1.9218×NEm−0.7259×(NEm)^2 and corrected using actual data of the experiment to calculate data for each of the two heads included in each pen. Analysis results of changes in feed intake and drinking water intake of the control and the NALT-treated group are shown in Table 12. […] Based thereon, it may be interpreted that the feed intake of cattle fed with NALT increased compared with the control without having increased drinking water intake even under heat stress conditions.

Setting [3] is: 0.1% NALT, day 48, control = 1.000.

“Also recorded” adds a separate entry of the source.

Regarding `CC(=O)N[C@@H](Cc1c[nH]c2ccccc12)C(=O)O` [NALT, N-acetyl-L-tryptophan], in assay [1], the “Expression of genes (MYF6, MyoD, and Desmin) related to muscle metabolism of loin tissue compared with the control” value is “did not show a statistically significant difference; also recorded: No statistically significant difference”; the “Expression of genes (PPARr, CEBPa, and FABP4) related to fat metabolism of loin tissue compared with the control” value is “lower”. Besides, in assay [1] (setting [3]), the “CEBPa expression level in loin tissue” value was determined as 0.293, the “Desmin expression level in loin tissue” value was determined as 0.871, the “FABP4 expression level in loin tissue” value is recorded as 0.233 and the “MYF6 expression level in loin tissue” value is reported as 0.834. In assay [1] (setting [3]), the “MyoD expression level in loin tissue” value was 0.857 and the “PPARr expression level in loin tissue” value is 0.274. In assay [2] (THIavg < 80), the Drinking water intake worked out at 35.3 kg and the Feed intake is 13.7 kg. In assay [2] (THIavg > 80), this compound showed a Drinking water intake of 44.6 kg and a Feed intake of 13.5 kg. In assay [2] (THI of 80 or more), the “Feed intake compared to the control” value is “significantly increased”. Also, in assay [2] (entire experiment period), the Average feed intake is 13.62 kg/day and the “Average feed intake compared with the control” value is “no statistically significant difference”. Further, the “Drinking water intake compared with the control” value in assay [2] (regardless of THI conditions) is “statistically significant decrease”.
